From PubChem BioAssay AID192 (DTP/NCI, 2004)
Several values for one entry are separate records, joined by “and”; a condition that tells them apart may be missing. Identical values can stand only once. Inconclusive results and toxic doses are left out.

Tested on: BDF1 mice, B16 melanoma ip, median survival T/C
Test: NCI In Vivo Anticancer Drug Screen. Data for tumor model B16 Melanoma (intraperitoneal) in B6D2F1 (BDF1) mice
Conditions: endpoint: median survival time, higher = longer survival
Outline: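 The ratio T/C compares compound-treated mice with vehicle-treated controls, using survival or tumor size as the endpoint in a transplantable tumor model.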

[1] = dose: 12.5 mg/kg/injection, schedule: Q01DX009 (ip), vehicle: saline
[2] = dose: 25.0 mg/kg/injection, schedule: Q01DX009 (ip), vehicle: saline
[3] = dose: 50.0 mg/kg/injection, schedule: Q01DX009 (ip), vehicle: saline
[4] = dose: 100.0 mg/kg/injection, schedule: Q01DX009 (ip), vehicle: saline
[5] = dose: 200.0 mg/kg/injection, schedule: Q01DX009 (ip), vehicle: saline
[6] = dose: 50.0 mg/kg/injection, schedule: Q01DX009 (ip), vehicle: saline with Tween-80
[7] = dose: 100.0 mg/kg/injection, schedule: Q01DX009 (ip), vehicle: saline with Tween-80
[8] = dose: 200.0 mg/kg/injection, schedule: Q01DX009 (ip), vehicle: saline with Tween-80
[9] = dose: 0.19 mg/kg/injection, schedule: Q01DX009 (ip), vehicle: Klucel (hydroxypropylcellulose) (HPC)
[10] = dose: 100.0 mg/kg/injection, schedule: Q01DX009 (ip), vehicle: Klucel (hydroxypropylcellulose) (HPC)
[11] = dose: 200.0 mg/kg/injection, schedule: Q01DX009 (ip), vehicle: Klucel (hydroxypropylcellulose) (HPC)
[12] = dose: 400.0 mg/kg/injection, schedule: Q01DX009 (ip), vehicle: Klucel (hydroxypropylcellulose) (HPC)
[13] = dose: 50.0 mg/kg/injection, schedule: Q01DX009 (ip), vehicle: Klucel (hydroxypropylcellulose) (HPC)
[14] = dose: 12.5 mg/kg/injection, schedule: Q01DX009 (ip), vehicle: saline with Tween-80
[15] = dose: 25.0 mg/kg/injection, schedule: Q01DX009 (ip), vehicle: saline with Tween-80
[16] = dose: 25.0 mg/kg/injection, schedule: Q01DX009 (ip), vehicle: water
[17] = dose: 50.0 mg/kg/injection, schedule: Q01DX009 (ip), vehicle: water
[18] = dose: 25.0 mg/kg/injection, schedule: Q01DX009 (ip), vehicle: Klucel (hydroxypropylcellulose) (HPC)

`[Cl][Ni][Cl].[NH-]CCN1CC1.[NH-]CCN1CC1` was tested, and the T/C (dose: 0.78 mg/kg/injection, schedule: Q01DX009 (ip), vehicle: saline) was 98 % of control, the T/C (dose: 1.56 mg/kg/injection, schedule: Q01DX009 (ip), vehicle: saline) was 97 % of control and the T/C (dose: 3.12 mg/kg/injection, schedule: Q01DX009 (ip), vehicle: saline) was 90 % of control.

In the case of `CN(C)CCOc1ccccc1Cc1ccccc1`, the T/C [1] is reported as 121 % of control, the T/C [2] is reported as 106 % of control and 107 % of control and the T/C [3] is reported as 95 % of control and 100 % of control. The T/C [4] was 105 % of control and the T/C [5] was 94 % of control.

In the case of `CCC[CH2][Hg][Cl]`, the T/C (dose: 0.75 mg/kg/injection, schedule: Q01DX009 (ip), vehicle: saline with Tween-80) is reported as 91 % of control and the T/C (dose: 1.5 mg/kg/injection, schedule: Q01DX009 (ip), vehicle: saline with Tween-80) is reported as 92 % of control.

In the case of `CN(C)CCCNC(=S)S`, the T/C (dose: 6.25 mg/kg/injection, schedule: Q01DX009 (ip), vehicle: saline) is reported as 100 % of control, the T/C [1] is reported as 97 % of control and the T/C (dose: 12.5 mg/kg/injection, schedule: Q04DX003 (ip), vehicle: saline) is reported as 111 % of control. For the same compound, the T/C [2] was 110 % of control, the T/C (dose: 25.0 mg/kg/injection, schedule: Q04DX003 (ip), vehicle: saline) was 111 % of control and the T/C (dose: 50.0 mg/kg/injection, schedule: Q04DX003 (ip), vehicle: saline) was 94 % of control.

With `O=[N+]([O-])c1ccc2c(c1)sc1cc([N+](=O)[O-])c(Br)cc12` the T/C [6] was 102 % of control, the T/C [7] was 102 % of control and the T/C [8] was 100 % of control. The T/C (dose: 400.0 mg/kg/injection, schedule: Q01DX009 (ip), vehicle: saline with Tween-80) was 90 % of control.

In the case of `COc1cc2[nH]c(C)c(CCN3CCN(c4ccccc4)CC3)c2cc1OC`, the T/C (dose: 0.04 mg/kg/injection, schedule: Q01DX009 (ip), vehicle: Klucel (hydroxypropylcellulose) (HPC)) is reported as 107 % of control, the T/C (dose: 0.09 mg/kg/injection, schedule: Q01DX009 (ip), vehicle: Klucel (hydroxypropylcellulose) (HPC)) is reported as 92 % of control and the T/C [9] is reported as 93 % of control. For the same compound, the T/C (dose: 0.39 mg/kg/injection, schedule: Q01DX009 (ip), vehicle: Klucel (hydroxypropylcellulose) (HPC)) was 106 % of control and the T/C (dose: 0.78 mg/kg/injection, schedule: Q01DX009 (ip), vehicle: Klucel (hydroxypropylcellulose) (HPC)) was 102 % of control.

For `CC(CC#N)OC(=O)c1cccc([N+](=O)[O-])c1` (stereo not drawn), the T/C [10] was 88 % of control, the T/C [11] was 99 % of control and the T/C [12] was 91 % of control.

In the case of `C1OC1CO[C@@H]1CO[C@H]2[C@@H]1OC[C@H]2OCC1CO1` (stereo partly drawn), the T/C [1] is reported as 94 % of control, the T/C [2] is reported as 94 % of control and the T/C [6] is reported as 87 % of control. The T/C [3] was 115 % of control, the T/C [7] was 97 % of control and the T/C [4] was 104 % of control. For the same compound, the T/C (dose: 100.0 mg/kg/injection, schedule: Q04DX003 (ip), vehicle: saline with Tween-80) was 116 % of control, the T/C [5] was 326 % of control and the T/C (dose: 266.0 mg/kg/injection, schedule: Q04DX003 (ip), vehicle: saline with Tween-80) was 104 % of control. The T/C (dose: 400.0 mg/kg/injection, schedule: Q01DX009 (ip), vehicle: saline) was 327 % of control and the T/C (dose: 600.0 mg/kg/injection, schedule: Q04DX003 (ip), vehicle: saline with Tween-80) was 109 % of control.

With `Nc1ncnc2c1c1c(=O)[nH]cnc1n2C1OC(CO)C(O)C1O` (stereo not drawn) the T/C [13] was 86 % of control.

`COc1cc2c[n+](C)c3c4cc5c(cc4ccc3c2cc1OC)OCO5` was tested, and the T/C (dose: 5.0 mg/kg/injection, schedule: Q01DX009 (ip), vehicle: water) was 122 % of control, the T/C [14] was 113 % of control and the T/C [15] was 115 % of control. The T/C (dose: 40.0 mg/kg/injection, schedule: Q01DX009 (ip), vehicle: water) was 120 % of control and the T/C [6] was 97 % of control.

`CNC(=O)CCN1CCN(CC/C=C2\c3ccccc3Sc3ccc(Cl)cc32)CC1` was tested, and the T/C (dose: 0.12 mg/kg/injection, schedule: Q01DX009 (ip), vehicle: saline) was 105 % of control, the T/C (dose: 0.51 mg/kg/injection, schedule: Q01DX009 (ip), vehicle: saline) was 100 % of control and the T/C (dose: 1.03 mg/kg/injection, schedule: Q01DX009 (ip), vehicle: saline) was 87 % of control. For the same compound, the T/C (dose: 2.06 mg/kg/injection, schedule: Q01DX009 (ip), vehicle: saline) was 95 % of control and the T/C (dose: 4.12 mg/kg/injection, schedule: Q01DX009 (ip), vehicle: saline) was 97 % of control.

`OCC#CCOCC(O)CCl` (stereo not drawn) was tested, and the T/C [16] was 102 % of control, the T/C [17] was 98 % of control and the T/C (dose: 100.0 mg/kg/injection, schedule: Q01DX009 (ip), vehicle: water) was 92 % of control.

In the case of `CCCCNC(C)(C)C(SS)c1ccco1` (stereo not drawn), the T/C (dose: 3.0 mg/kg/injection, schedule: Q01DX009 (ip), vehicle: alcohol) is reported as 107 % of control, the T/C (dose: 6.0 mg/kg/injection, schedule: Q01DX009 (ip), vehicle: alcohol) is reported as 107 % of control and the T/C (dose: 12.0 mg/kg/injection, schedule: Q01DX009 (ip), vehicle: alcohol) is reported as 112 % of control. The T/C (dose: 37.5 mg/kg/injection, schedule: Q01DX009 (ip), vehicle: saline) was 87 % of control and the T/C (dose: 55.0 mg/kg/injection, schedule: Q01DX009 (ip), vehicle: saline) was 106 % of control.

`Cc1cc(Cl)ccc1NC(=O)c1ccc([N+](=O)[O-])cc1` was tested, and the T/C [6] was 104 % of control, the T/C [7] was 100 % of control and the T/C [8] was 103 % of control.

In the case of `C=CC(=O)NCNC(=O)C=C`, the T/C [14] is reported as 104 % of control, the T/C [1] is reported as 110 % of control and the T/C [15] is reported as 99 % of control. For the same compound, the T/C [2] was 102 % of control, the T/C [6] was 103 % of control and the T/C [3] was 109 % of control. The T/C [7] was 107 % of control and the T/C [4] was 102 % of control.

`C=C1C(=O)O[C@@H]2C[C@@H](C)[C@@H]3C=CC(=O)[C@@]3(C)[C@@H](O)[C@H]12` was tested, and the T/C (dose: 2.0 mg/kg/injection, schedule: Q01DX009 (ip), vehicle: saline + alcohol) was 120 % of control, the T/C (dose: 2.0 mg/kg/injection, schedule: Q01DX009 (ip), vehicle: saline) was 104 % of control and the T/C (dose: 4.0 mg/kg/injection, schedule: Q01DX009 (ip), vehicle: saline + alcohol) was 115 % of control. For the same compound, the T/C (dose: 4.0 mg/kg/injection, schedule: Q01DX009 (ip), vehicle: saline) was 95 % of control, the T/C (dose: 8.0 mg/kg/injection, schedule: Q01DX009 (ip), vehicle: saline + alcohol) was 115 % of control and the T/C (dose: 8.0 mg/kg/injection, schedule: Q01DX009 (ip), vehicle: saline) was 105 % of control.

For `COc1ccc(-c2nc3cc(Cl)ccc3c(=O)o2)cc1`, the T/C [10] was 101 % of control and the T/C [11] was 115 % of control.

With `C/C=C\C(C)=C/C(C)C(=O)CC(O)CC1CC(=O)NC(=O)C1` (stereo not drawn) the T/C (dose: 3.12 mg/kg/injection, schedule: Q01DX009 (ip), vehicle: DMSO) was 95 % of control, the T/C (dose: 6.25 mg/kg/injection, schedule: Q01DX009 (ip), vehicle: DMSO) was 119 % of control and the T/C (dose: 12.5 mg/kg/injection, schedule: Q01DX009 (ip), vehicle: DMSO) was 103 % of control. The T/C (dose: 25.0 mg/kg/injection, schedule: Q01DX009 (ip), vehicle: DMSO) was 96 % of control.

With `Cc1ccc(NC(=O)c2ccc([N+](=O)[O-])cc2)cc1Cl` the T/C [18] was 109 % of control, the T/C [13] was 99 % of control and the T/C [10] was 99 % of control.

In the case of `NC(CSCc1ccccc1)C(=O)O` (stereo not drawn), the T/C [18] is reported as 98 % of control, the T/C [13] is reported as 106 % of control and the T/C [10] is reported as 102 % of control. The T/C [11] was 98 % of control and the T/C [12] was 117 % of control.

With `CC(=O)Oc1c(C)c2c(O)c3c1C1=C(OCOC1=C(C)C3=O)C(C)=CC(C)(O)C(O)C(C)C(O)C1C(=O)OC(C(C)/C=C\C=C(C)C(=O)N2)C(C)C1O` (stereo not drawn) the T/C [3] was 97 % of control.

For `COc1cc2cc[n+](C)cc2cc1OC`, the T/C (dose: 6.25 mg/kg/injection, schedule: Q01DX009 (ip), vehicle: water) was 95 % of control, the T/C (dose: 12.5 mg/kg/injection, schedule: Q01DX009 (ip), vehicle: water) was 95 % of control and the T/C [16] was 97 % of control. For the same compound, the T/C [17] was 92 % of control.

`CCS/C(SC)=C(/c1ccccc1)[P+](c1ccccc1)(c1ccccc1)c1ccccc1` was tested, and the T/C [9] was 99 % of control, the T/C (dose: 0.38 mg/kg/injection, schedule: Q01DX009 (ip), vehicle: Klucel (hydroxypropylcellulose) (HPC)) was 99 % of control and the T/C (dose: 0.75 mg/kg/injection, schedule: Q01DX009 (ip), vehicle: Klucel (hydroxypropylcellulose) (HPC)) was 100 % of control. For the same compound, the T/C (dose: 1.5 mg/kg/injection, schedule: Q01DX009 (ip), vehicle: Klucel (hydroxypropylcellulose) (HPC)) was 95 % of control and 106 % of control.
